The results in this text go back to patent publication US12428427B2, “Methods and compositions for targeting PD-L1” (Aligos Therapeutics, Inc., priority 2021, dated 2025).

Each structure is given as a SMILES string.

One test deals with T1, PD-1/PD-L1 interaction (Homo sapiens, UniProt Q9NZQ7).
T1 construct: expressed in transfected cells; Jurkat cells (PD-1 plus NFAT-luciferase)
In words: PD-1/PD-L1 NFAT Reporter Assay. In kind it is cell-based. As to conditions: co-culture of PD-L1 expressing CHO cells and PD-1 overexpressing Jurkat cells, 6 hrs, NFAT luciferase. The method, then:
Blocking the PD-1/PD-L1 interaction will release the inhibitory signal and results in TCR signaling and NFAT-mediated luciferase activity.
CHO cells expressing surface-bound anti-CD3 antibodies and PD-L1 were first seeded overnight and treated with the compounds. Jurkat cells overexpressing PD-1 and a luciferase construct under NFAT promoter were then immediately seeded on the monolayer of CHO cells. The co-culture was then incubated for 6 hrs at 37° C. Luciferase activity was assessed by adding the ONE-Glo reagent and measuring luminescence with a plate reader. EC50 values were determined from the fit of the dose-response curves.

The target of the next test is PDL1/PD1 (Homo sapiens, UniProt Q9NZQ7). Description: PDL1/PD1 Binding Assay. As to conditions: PDL1-6×His 0.3 nM, PD1-Fc-Avi-Biotin 2.5 nM, Acceptor/Donor beads; read-out: PD-1/PD-L1 PPI IC50. On the procedure: Compounds to be tested were serially diluted in DMSO, and further diluted in assay buffer (25 mM Hepes pH 7.4, 150 mM NaCl, 0.005% Tween 20, BSA 0.01%). Diluted compounds were added to the wells with final concentration of DMSO at 1%. PDL1-6×His protein was added to the wells, mixed well with compound. The plates were incubated for 30 min at room temperature. PD1-Fc-Avi-Biotin protein was added to the wells. Final concentration of PDL1 and PD1 protein is 0.3 nM and 2.5 nM, respectively. After a binding time of 30 min at room temperature, Anti-6×His Acceptor beads (final concentration 20 ug/ml) were added to the wells, and the incubation continued for 1 h. Streptavidin Donor beads (final concentration 20 ug/mL) were added at reduced light. The plates were sealed with foil and incubated in the dark for additional 1 h or overnight before reading on an Envision reader. The IC50 values were determined by fitting the curves using a four-parameter equation in Graphpad Prism 8.
PDL1/PD1, sequence (Q9NZQ7 19-238 limits assumed): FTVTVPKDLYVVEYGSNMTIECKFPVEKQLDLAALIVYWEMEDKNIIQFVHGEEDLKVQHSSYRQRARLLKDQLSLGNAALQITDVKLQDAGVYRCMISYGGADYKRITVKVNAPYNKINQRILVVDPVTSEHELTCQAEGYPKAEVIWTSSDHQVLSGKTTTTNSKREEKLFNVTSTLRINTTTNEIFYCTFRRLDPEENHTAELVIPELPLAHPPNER

T1 sequence (Q9NZQ7 19-290): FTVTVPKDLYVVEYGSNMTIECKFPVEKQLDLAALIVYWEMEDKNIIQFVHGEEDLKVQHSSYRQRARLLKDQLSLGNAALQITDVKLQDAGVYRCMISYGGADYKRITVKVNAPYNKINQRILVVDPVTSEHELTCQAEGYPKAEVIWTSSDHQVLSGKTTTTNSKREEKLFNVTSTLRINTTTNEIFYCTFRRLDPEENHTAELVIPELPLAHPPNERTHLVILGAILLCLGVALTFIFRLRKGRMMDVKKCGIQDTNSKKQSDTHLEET

On to `COc1nc(-c2cccc(-c3cccc(NC(=O)c4ccnn(C)c4=O)c3C)c2C)ccc1CN[C@@H]1CCOC[C@H]1O` [Compound C-70], for which, at PD-1/PD-L1 interaction, the EC50 (commonly the midpoint of the concentration-response curve) was in the range of 10 to 100 nM. On PDL1/PD1, the IC50 was not above 10 nM.
In turn, `COc1nc(-c2cccc(-c3cccc(NC(=O)c4ccnn(C)c4=O)c3C)c2C)ccc1CNC(C)(C)CO` [Compound C-73] had an EC50 on PD-1/PD-L1 interaction of more than 5000 nM. In addition, at PDL1/PD1, the IC50 was not above 10 nM.
On to `COc1nc(-c2cccc(-c3cccc(NC(=O)c4ccnn(C)c4=O)c3Cl)c2Cl)c(F)cc1CN[C@@H]1CCOC[C@@H]1O` [Compound C-75], for which the EC50 at PD-1/PD-L1 interaction was not above 10 nM. Further, the IC50 on PDL1/PD1 is not above 10 nM.
On PD-1/PD-L1 interaction, `COc1nc(-c2cccc(-c3cccc(NC(=O)c4ccnn(C)c4=O)c3Cl)c2Cl)c(F)cc1CN1CC(C(=O)O)C1` [Compound C-76] gave an EC50 of 10 to 100 nM. For the same compound, the IC50 at PDL1/PD1 is not above 10 nM.
At PD-1/PD-L1 interaction, `CCOC(=O)C1CN(Cc2cc(F)c(-c3cccc(-c4cccc(NC(=O)c5ccnn(C)c5=O)c4Cl)c3Cl)nc2OC)C1` [Compound C-77] yielded an EC50 of 10 to 100 nM. In addition, the IC50 on PDL1/PD1 was not above 10 nM.
On the same counts, the results for `COC(=O)C1CN(Cc2cc(F)c(-c3cccc(-c4cccc(NC(=O)c5ccnn(C)c5=O)c4Cl)c3Cl)nc2OC)C1` [Compound C-78] are 100 to 1000 nM and not above 10 nM.
The corresponding values for `CCOC(=O)C1CN(Cc2cnc(-c3cccc(-c4cccc(NC(=O)c5ccnn(C)c5=O)c4Cl)c3Cl)nc2OC)C1` [Compound C-79] are 10 to 100 nM and not above 10 nM.
`COc1nc(-c2cccc(-c3cccc(NC(=O)c4ccnn(C)c4=O)c3Cl)c2Cl)ncc1CN1CC(C(=O)O)C1` [Compound C-80] registered an EC50 at PD-1/PD-L1 interaction of 10 to 100 nM. The IC50 on PDL1/PD1 was not above 10 nM.
Take `COc1nc(-c2cccc(-c3cccc(NC(=O)c4ccnn(C)c4=O)c3Cl)c2Cl)ncc1CN[C@@H]1CCOC[C@@H]1O` [Compound C-81]: the EC50 at PD-1/PD-L1 interaction is not above 10 nM. The IC50 at PDL1/PD1 was not above 10 nM.
`COc1nc(-c2cccc(-c3cccc(NC(=O)c4ccnn(C)c4=O)c3Cl)c2Cl)ncc1CN1CC(O)C1` [Compound C-82] came in with an EC50 at PD-1/PD-L1 interaction of 10 to 100 nM. Moreover, the IC50 on PDL1/PD1 was not above 10 nM.
As for `COc1nc(-c2cccc(-c3cccc(NC(=O)c4ccnn(C)c4=O)c3C)c2Cl)cnc1CN1CC[C@H](O)C1` [Compound C-87], the EC50 at PD-1/PD-L1 interaction is not above 10 nM. The IC50 at PDL1/PD1 is not above 10 nM.
Take `COc1nc(-c2cccc(-c3cccc(NC(=O)c4ccnn(C)c4=O)c3Cl)c2Cl)cc(C)c1CN1CC(C(=O)O)C1` [Compound C-88]: the half-maximal effective concentration (EC50) at PD-1/PD-L1 interaction was 10 to 100 nM. The IC50 on PDL1/PD1 is not above 10 nM.
Regarding `CCOC(=O)C1CN(Cc2c(C)cc(-c3cccc(-c4cccc(NC(=O)c5ccnn(C)c5=O)c4Cl)c3Cl)nc2OC)C1` [Compound C-89], the concentration giving a half-maximal response (EC50) at PD-1/PD-L1 interaction lay within 10 to 100 nM. The IC50 at PDL1/PD1 was not above 10 nM.
For `CCOC(=O)C1CN(Cc2c(C)cc(-c3cccc(-c4cccc(NC(=O)c5ccnn(C)c5=O)c4C)c3Cl)nc2OC)C1` [Compound C-90], the EC50 on PD-1/PD-L1 interaction is 10 to 100 nM. Moreover, at PDL1/PD1, the IC50 was not above 10 nM.
Consider `COc1nc(-c2cccc(-c3cccc(NC(=O)c4ccnn(C)c4=O)c3C)c2Cl)cc(C)c1CN1CC(C(=O)O)C1` [Compound C-91], for which the EC50 on PD-1/PD-L1 interaction is 10 to 100 nM. Moreover, the IC50 at PDL1/PD1 is not above 10 nM.
The compound `COc1cc(C(=O)Nc2cccc(-c3cccc(-c4ccc(CN[C@@H]5CCOC[C@@H]5O)c(OC)n4)c3Cl)c2Cl)c(=O)n(C)n1` [Compound C-92] gave a half-maximal effective concentration (EC50) at PD-1/PD-L1 interaction of 10 to 100 nM. Moreover, on PDL1/PD1, the IC50 is not above 10 nM.
On the same counts, the results for `CCOC(=O)N(Cc1ncc(-c2cccc(-c3cccc(NC(=O)c4ccnn(C)c4=O)c3C)c2Cl)nc1OC)C[C@@H]1CCC(=O)N1` [Compound D-2] are more than 5000 nM and 10 to 100 nM.
For the compound `COc1nc(-c2cccc(-c3cccc(NC(=O)c4ccnn(C)c4=O)c3Cl)c2Cl)ccc1CN1C(=O)O[C@H]2COCC[C@H]21` [Compound E-1], the concentration for a half-maximal effect (EC50) at PD-1/PD-L1 interaction is more than 10000 nM. Also, the IC50 on PDL1/PD1 is not above 10 nM.
